Like-named read-outs stand apart in the source and are kept apart here. Where no end group is shown, it is not given here.
Experiments:
Assay in all cases: Direct-binding FRET assay
ATF4 = biological target: T1, ATF4 (Homo sapiens, UniProt P18848)
T1 construct: made in house
T1 sequence (P18848 278-341 limits assumed): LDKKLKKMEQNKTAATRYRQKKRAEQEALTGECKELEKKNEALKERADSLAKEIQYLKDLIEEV
Summary of the method: (§1)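 Direct-binding FRET used a fresh acceptor dilution series in 1 mM TCEP-HCl. Simulated binding for varying Kd was compared against experiment, accounting for competing donor and acceptor homodimers.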

NFE2 = biological target: T2, NFE2 (Homo sapiens, UniProt Q16621)
T2 construct: made in house
T2 sequence (Q16621 266-329 limits assumed): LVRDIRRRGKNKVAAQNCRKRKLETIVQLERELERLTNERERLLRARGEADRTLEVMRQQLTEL
Summary of the method: as §1

NFE2L3 = biological target: T3, NFE2L3 (Homo sapiens, UniProt Q9Y4A8)
T3 construct: made in house
T3 sequence (Q9Y4A8 578-641 limits assumed): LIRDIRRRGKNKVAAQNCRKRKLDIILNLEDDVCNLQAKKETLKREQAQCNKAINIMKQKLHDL
Summary of the method: as §1

CREB1 = biological target: T4, CREB1 (Homo sapiens, UniProt P16220)
T4 construct: made in house
T4 sequence (P16220 269-327 limits assumed): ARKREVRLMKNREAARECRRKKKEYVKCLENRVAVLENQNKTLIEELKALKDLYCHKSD
Summary of the method: as §1

ATF6B = ATF6B (Homo sapiens, UniProt Q99941); parameters: made in house
Experimental: (§2) The direct binding assay was performed manually in 384-well plates and is similar to a previously described assay. Wells were filled with 20 μL of 1 mM TCEP-HCl. A 4 μM stock of acceptor protein was made fresh in 1 mM TCEP-HCl, and 20 μL was titrated in 2-fold dilutions over the wells. […] The direct-binding FRET data were fit as previously described. Briefly, the Kd of the designed peptide homodimer was experimentally determined and used with previously determined target homodimer Kd values to determine the heterodimer Kd. The homodimer Kd values used for the human bZIPs were from; experiments done by […] et al. used the same protein constructs for the human bZIP proteins, the same buffer conditions, and the same assay. The fitting used a system of ordinary differential equations to describe the concentrations of homo and heterodimers formed by the donor (D) and acceptor (A) as a function of the heterodimer Kd. MATLAB was used to simulate the binding experiment for different Kd values, and the value that gave the best agreement between simulation and experiment was assigned. A minimum 15% change in the donor fluorescence upon titrating the acceptor peptide from 0 to 1000 nM was required for a fit to be attempted. If this minimum was not met, the interaction was classified as “NS” for no signal change. […] For such curves, we removed the first five points and re-fit the data.

MAFG = MAFG (Homo sapiens, UniProt O15525); parameters: made in house
Experimental: as §2

FOS = FOS (Homo sapiens, UniProt P01100); parameters: made in house
Experimental: as §2

JUN = JUN (Homo sapiens, UniProt P05412); parameters: made in house
Experimental: as §2

CREBZF = biological target: T5, CREBZF (Homo sapiens, UniProt Q9NS37)
T5 construct: made in house
T5 sequence (Q9NS37 204-267 limits assumed): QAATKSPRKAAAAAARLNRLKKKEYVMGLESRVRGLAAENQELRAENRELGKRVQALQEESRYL
Experimental: The direct binding assay was performed manually in 384-well plates and is similar to a previously described assay. Wells were filled with 20 μL of 1 mM TCEP-HCl. A 4 μM stock of acceptor protein was made fresh in 1 mM TCEP-HCl, and 20 μL was titrated in 2-fold dilutions over the wells. […] The direct-binding FRET data were fit as previously described. Briefly, the Kd of the designed peptide homodimer was experimentally determined and used with previously determined target homodimer Kd values to determine the heterodimer Kd. The homodimer Kd values used for the human bZIPs were from; experiments done by […] et al. used the same protein constructs for the human bZIP proteins, the same buffer conditions, and the same assay. The fitting used a system of ordinary differential equations to describe the concentrations of homo and heterodimers formed by the donor (D) and acceptor (A) as a function of the heterodimer Kd. MATLAB was used to simulate the binding experiment for different Kd values, and the value that gave the best agreement between simulation and experiment was assigned. A minimum 15% change in the donor fluorescence upon titrating the acceptor peptide from 0 to 1000 nM was required for a fit to be attempted. If this minimum was not met, the interaction was classified as “NS” for no signal change. […] These interactions were marked “AS” to indicate anomalous signal. We attributed this to interactions between the peptides, the dyes and the walls of the assay plates at low concentrations. These curves could not be fit, given their unusual shapes at low concentrations of acceptor. For such curves, we removed the first five points and re-fit the data. […] One example of this is increasing concentrations of acceptor causing an increase in donor fluorescence.

[1] = 4°C, C-terminal fluorescein design as donor, TAMRA target titrated, read-out: Kd
[2] = 4°C, C-terminal rhodamine design, mean or single, read-out: Kd
[3] = 23°C, C-terminal fluorescein design as donor, TAMRA target titrated, read-out: Kd
[4] = 23°C, C-terminal rhodamine design, mean or single, read-out: Kd
[5] = 37°C, C-terminal fluorescein design as donor, TAMRA target titrated, read-out: Kd
[6] = 4°C, N-terminal rhodamine design, mean or single, read-out: Kd
[7] = 23°C, C-terminal rhodamine design, repeat 1, read-out: Kd
[8] = 23°C, N-terminal rhodamine design, mean or single, read-out: Kd
[9] = 37°C, C-terminal rhodamine design, repeat 1, read-out: Kd
[10] = 37°C, N-terminal rhodamine design, mean or single, read-out: Kd
[11] = 4°C, C-terminal rhodamine design, repeat 1, read-out: Kd
[12] = 37°C, C-terminal rhodamine design, mean or single, read-out: Kd
[13] = Kd, 4°C, N-terminal rhodamine design, mean or single
[14] = Kd, 23°C, C-terminal fluorescein design as donor, TAMRA target titrated
[15] = Kd, 23°C, N-terminal rhodamine design, mean or single
[16] = Kd, 37°C, C-terminal fluorescein design as donor, TAMRA target titrated
[17] = Kd, 37°C, N-terminal rhodamine design, mean or single
[18] = 4°C, C-terminal fluorescein design as donor, TAMRA target titrated
[19] = 4°C, C-terminal rhodamine design, repeat 1
[20] = 4°C, N-terminal rhodamine design, mean or single
[21] = 23°C, C-terminal fluorescein design as donor, TAMRA target titrated
[22] = 23°C, C-terminal rhodamine design, repeat 1
[23] = 23°C, N-terminal rhodamine design, mean or single
[24] = 37°C, C-terminal fluorescein design as donor, TAMRA target titrated
[25] = 37°C, N-terminal rhodamine design, mean or single
[26] = Kd, 4°C, C-terminal fluorescein design as donor, TAMRA target titrated

Sequence of MAFG (O15525 51-114 limits assumed): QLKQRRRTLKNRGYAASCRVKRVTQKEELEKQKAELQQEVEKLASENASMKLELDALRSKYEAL
Sequence of ATF6B (Q99941 325-388 limits assumed): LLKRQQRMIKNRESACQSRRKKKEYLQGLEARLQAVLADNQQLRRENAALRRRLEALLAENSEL

NQIKTLRTRLSKLRKDNLQLEKDIANLERKAKDLRAEKEQLEYEL [ATF4-d1]
Kd (ATF4; [1]): 2.3 nM
Kd (ATF4; [2]): 1 nM
Kd (ATF4; 4°C, N-terminal rhodamine design, repeat 1, read-out: Kd): > 5000 nM
Kd (ATF4; 4°C, N-terminal rhodamine design, repeat 2, read-out: Kd): > 5000 nM
Kd (ATF4; [3]): 3.7 nM
Kd (ATF4; [4]): 1 nM
Kd (ATF4; [5]): 10 nM
Kd (NFE2; [1]): 42.4 nM
Kd (NFE2; [6]): > 5000 nM
Kd (NFE2; [7]): 200 to 1000 nM
Kd (NFE2; [8]): > 1000 nM
Kd (NFE2; [5]): > 1000 nM
Kd (NFE2; [9]): > 5000 nM
Kd (NFE2; 37°C, C-terminal rhodamine design, repeat 2, read-out: Kd): > 5000 nM
Kd (NFE2; [10]): > 1000 nM
Kd (NFE2L3; [11]): > 5000 nM
Kd (NFE2L3; [6]): > 1000 nM
Kd (NFE2L3; [7]): > 5000 nM
Kd (NFE2L3; [8]): > 1000 nM
Kd (NFE2L3; [9]): > 5000 nM
Kd (NFE2L3; [10]): > 1000 nM
Kd (CREB1; [1]): > 5000 nM
Kd (CREB1; [11]): > 1000 nM
Kd (CREB1; [6]): > 5000 nM
Kd (CREB1; [3]): > 1000 nM
Kd (CREB1; [7]): > 1000 nM
Kd (CREB1; [8]): > 5000 nM
Kd (CREB1; [5]): > 1000 nM
Kd (CREB1; [9]): > 5000 nM
Kd (CREB1; [10]): > 1000 nM
Kd (ATF6B; [1]): > 1000 nM
Kd (ATF6B; [11]): > 5000 nM
Kd (ATF6B; [6]): > 1000 nM
Kd (ATF6B; [3]): > 1000 nM
Kd (ATF6B; [7]): > 5000 nM
Kd (ATF6B; [8]): > 1000 nM
Kd (ATF6B; [5]): > 1000 nM
Kd (ATF6B; [9]): > 5000 nM
Kd (ATF6B; [10]): > 1000 nM
Kd (MAFG; [11]): > 5000 nM
Kd (MAFG; [6]): > 1000 nM
Kd (MAFG; [7]): > 5000 nM
Kd (MAFG; [8]): > 1000 nM
Kd (MAFG; [9]): 200 to 1000 nM
Kd (MAFG; [10]): > 1000 nM
Kd (FOS; [6]): 133 nM
Kd (FOS; [3]): > 1000 nM
Kd (FOS; [7]): > 5000 nM
Kd (FOS; [8]): > 1000 nM
Kd (FOS; [5]): > 1000 nM
Kd (FOS; [9]): > 1000 nM
Kd (FOS; [10]): > 1000 nM
Kd (JUN; [1]): > 1000 nM
Kd (JUN; [2]): < 200 nM
Kd (JUN; [6]): > 1000 nM
Kd (JUN; [3]): > 1000 nM
Kd (JUN; [4]): < 200 nM
Kd (JUN; [8]): > 5000 nM
Kd (JUN; [5]): > 1000 nM
Kd (JUN; [12]): 623 nM
Kd (JUN; [10]): > 5000 nM
Kd (CREBZF; [2]): > 5000 nM
Kd (CREBZF; [6]): < 200 nM
Kd (CREBZF; [3]): > 1000 nM
Kd (CREBZF; [4]): > 5000 nM
Kd (CREBZF; [8]): > 5000 nM
Kd (CREBZF; [5]): > 1000 nM
Kd (CREBZF; [12]): > 1000 nM
Kd (CREBZF; [10]): > 1000 nM

SIAATLEKEEANLEKMNKKLAAEIESLLKEKDKLESVLNYHE [JUN-d1]
Kd (ATF4; [13]): 592 nM
Kd (ATF4; [14]): 40.1 nM
Kd (ATF4; [15]): > 5000 nM
Kd (ATF4; [16]): 441 nM
Kd (ATF4; Kd, 37°C, C-terminal rhodamine design, mean or single): 543 nM
Kd (ATF4; [17]): > 1000 nM
Kd (NFE2): > 1000 nM
Kd (NFE2; [18]): > 1000 nM
Kd (NFE2; [19]): > 1000 nM
Kd (NFE2; [20]): > 1000 nM
Kd (NFE2; [21]): > 1000 nM
Kd (NFE2; [22]): > 1000 nM
Kd (NFE2; [23]): > 1000 nM
Kd (NFE2; [24]): > 1000 nM
Kd (NFE2; [25]): > 1000 nM
Kd (NFE2L3): > 1000 nM
Kd (NFE2L3; [19]): > 1000 nM
Kd (NFE2L3; [20]): > 1000 nM
Kd (NFE2L3; [22]): > 1000 nM
Kd (NFE2L3; [23]): > 1000 nM
Kd (NFE2L3; [25]): > 1000 nM
Kd (CREB1): > 1000 nM
Kd (CREB1; [18]): > 1000 nM
Kd (CREB1; [19]): > 1000 nM
Kd (CREB1; [20]): > 1000 nM
Kd (CREB1; [21]): > 1000 nM
Kd (CREB1; [22]): > 1000 nM
Kd (CREB1; [23]): > 1000 nM
Kd (CREB1; [24]): > 1000 nM
Kd (CREB1; [25]): > 1000 nM
Kd (ATF6B; [26]): 200 to 1000 nM
Kd (ATF6B; Kd, 4°C, C-terminal rhodamine design, repeat 1): > 1000 nM
Kd (ATF6B; [13]): > 1000 nM
Kd (ATF6B; [14]): > 1000 nM
Kd (ATF6B; Kd, 23°C, C-terminal rhodamine design, repeat 1): > 1000 nM
Kd (ATF6B; [15]): > 1000 nM
Kd (ATF6B; [16]): > 1000 nM
Kd (ATF6B; Kd, 37°C, C-terminal rhodamine design, repeat 1): > 1000 nM
Kd (ATF6B; [17]): > 1000 nM
Kd (MAFG): > 1000 nM
Kd (MAFG; [19]): > 1000 nM
Kd (MAFG; [20]): > 1000 nM
Kd (MAFG; [22]): > 1000 nM
Kd (MAFG; [23]): > 1000 nM
Kd (MAFG; [25]): > 1000 nM
Kd (FOS): > 1000 nM
Kd (FOS; [18]): > 1000 nM
Kd (FOS; [20]): > 1000 nM
Kd (FOS; [21]): > 1000 nM
Kd (FOS; [22]): > 1000 nM
Kd (FOS; [23]): > 1000 nM
Kd (FOS; [24]): > 1000 nM
Kd (FOS; [25]): > 1000 nM
Kd (JUN; [26]): 2.1 nM
Kd (JUN; Kd, 4°C, C-terminal rhodamine design, mean or single): 1 nM
Kd (JUN; [16]): 16.1 nM
Kd (CREBZF): > 1000 nM
Kd (CREBZF; [18]): > 1000 nM
Kd (CREBZF; 4°C, C-terminal rhodamine design, mean or single): > 1000 nM
Kd (CREBZF; [20]): > 1000 nM
Kd (CREBZF; [21]): > 1000 nM
Kd (CREBZF; 23°C, C-terminal rhodamine design, mean or single): > 1000 nM
Kd (CREBZF; [23]): > 1000 nM
Kd (CREBZF; [24]): > 1000 nM
Kd (CREBZF; [25]): > 1000 nM

Reference: PMC4335062, “Data-Driven Prediction and Design of bZIP Coiled-Coil Interactions” (PLoS Computational Biology, 2015)
